In ChEMBL document CHEMBL1201862, “PubChem BioAssay data set” (2004):
Activity calls are given as the source filed them. Cut-off read from the data, not from the text of the source: active = IC50 of 10 µM or less and inactive = more.

Assays:
Format in all cases: functional
[1] = molecular target: T1, Melanin-concentrating hormone receptor 1 (Homo sapiens, UniProt Q99705); experiment: Late-stage fluorescence-based counterscreen for antagonists of the G-protein coupled receptor 7 (GPR7): cell-based dose response assay to identify antagonists of the melanin-concentrating hormone receptor 1 (MCHR1) Set 5.
[2] = molecular target: T2, Neuropeptides B/W receptor type 1 (Homo sapiens, UniProt P48145); experiment: human NPBW1 receptor blockade, IC50 – cell-based, fluorescence, dose response, set 5, late-stage follow-up (AID 588566)
T2 sequence (P48145 whole entry): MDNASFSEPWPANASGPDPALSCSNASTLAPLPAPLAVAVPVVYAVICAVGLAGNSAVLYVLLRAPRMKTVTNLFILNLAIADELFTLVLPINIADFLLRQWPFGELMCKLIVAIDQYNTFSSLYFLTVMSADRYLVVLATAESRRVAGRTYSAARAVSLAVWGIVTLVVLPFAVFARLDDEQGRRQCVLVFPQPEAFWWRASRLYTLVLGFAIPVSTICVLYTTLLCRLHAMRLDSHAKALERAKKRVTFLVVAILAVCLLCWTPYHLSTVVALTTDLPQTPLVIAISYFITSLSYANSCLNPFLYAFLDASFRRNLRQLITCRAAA

[3] = molecular target: T2, Neuropeptides B/W receptor type 1; experiment: human NPBW1 receptor blockade, IC50 – cell-based, fluorescence, dose response, set 6, late-stage follow-up (AID 588583)
[4] = molecular target: T1, Melanin-concentrating hormone receptor 1; experiment: Late-stage fluorescence-based counterscreen for antagonists of the G-protein coupled receptor 7 (GPR7): cell-based dose response assay to identify antagonists of the melanin-concentrating hormone receptor 1 (MCHR1) Set 6.

T1 sequence (Q99705 whole entry): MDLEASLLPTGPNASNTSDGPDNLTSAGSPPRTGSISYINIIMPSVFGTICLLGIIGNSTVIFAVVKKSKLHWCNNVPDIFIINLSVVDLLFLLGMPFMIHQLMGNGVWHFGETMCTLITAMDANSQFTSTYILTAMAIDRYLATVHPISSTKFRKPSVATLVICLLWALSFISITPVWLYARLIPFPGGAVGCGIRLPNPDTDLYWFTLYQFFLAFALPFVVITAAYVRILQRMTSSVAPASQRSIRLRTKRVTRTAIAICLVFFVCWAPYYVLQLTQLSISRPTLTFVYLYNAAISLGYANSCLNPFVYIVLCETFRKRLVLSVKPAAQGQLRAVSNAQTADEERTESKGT

IC50 [1]	IC50 [2]	IC50 [3]	IC50 [4]	SMILES
4.44 µM (active)	~6.06 µM (active)			COc1ccc(S(=O)(=O)c2c(Cl)cnn(Cc3cccc4ccccc34)c2=O)cc1
		4.72 µM (active)	4.72 µM (active)	CCc1c(C(C#N)c2ccccc2)cnn(Cc2cccc3ccccc23)c1=O (centres undefined)
